Consider eight compounds from ChEMBL document CHEMBL1150068, “Antimalarial activity of sesquiterpenes from the marine sponge Acanthella klethra” (J Nat Prod, 1992).

For one assay, the system named is KB. The assay is described as follows: Cytotoxicity against human KB cells. It is filed as cell-based.
In assay [1] the test system is Plasmodium falciparum. The assay is described as follows: Antimalarial activity against chloroquine-sensitive Plasmodium falciparum D6. The assay is classed as functional, organism-based.
Assay [2] concerns Plasmodium falciparum. The assay is described as follows: Antimalarial activity against chloroquine-resistant Plasmodium falciparum W2. The assay is classed as functional, organism-based.

Structures are written as SMILES. In brackets after ≈: the same amount, converted by molar mass. Some results are limits rather than exact numbers.

With `C=C(C)[C@@H]1CC[C@@]2(C)CCC[C@@](C)(N=C=S)[C@@H]2C1`, the IC50 (as a rule, the midpoint of a concentration-inhibition curve) with KB was greater than 20 µg/mL; in the assay with Plasmodium falciparum [1], greater than 10 µg/mL; with Plasmodium falciparum [2], greater than 10 µg/mL.
For the compound `CC1=C[C@]2(CC1)[C@H](C)CC[C@@H](C(C)C)[C@H]2N=C=S`, the IC50 in the assay with KB is greater than 20 µg/mL; with Plasmodium falciparum [1] it was 12.3 µg/mL (≈ 46.8 µM); in the assay on Plasmodium falciparum [2], 3.11 µg/mL (≈ 11.8 µM).
The matching figures for `C[C@H]1CCC[C@]2(C)CC[C@H](C(C)(C)N=C=S)C=C12`: greater than 20 µg/mL, 2.24 µg/mL (≈ 8.5 µM) and 0.61 µg/mL (≈ 2.32 µM).
The matching figures for `C=C(C)[C@H]1CC[C@@]2(C)CCC[C@@](C)(N=C=S)[C@@H]2C1`: greater than 20 µg/mL, 4 µg/mL (≈ 15.2 µM) and 0.55 µg/mL (≈ 2.09 µM).
`C[C@@H]1CC[C@H]2[C@@H](C)C(=O)O[C@@H]3O[C@@]4(C)CC[C@@H]1[C@]32OO4` [ARTEMISININ]: the IC50 in the assay with KB is greater than 20 µg/mL; in the assay on Plasmodium falciparum [1], 0.0041 µg/mL (≈ 0.0145 µM); in the assay on Plasmodium falciparum [2], 0.00071 µg/mL (≈ 0.00251 µM).
The matching figures for `[C-]#[N+][C@@H]1[C@H](C(C)C)CC[C@@H](C)[C@@]12C=C(C)CC2` [AXISONITRILE 3]: greater than 20 µg/mL, 0.142 µg/mL (≈ 0.614 µM) and 0.0165 µg/mL (≈ 0.0713 µM).
In the case of `OC(c1cc(C(F)(F)F)nc2c(C(F)(F)F)cccc12)C1CCCCN1` (stereo not drawn) [MEFLOQUINE], the values for the half-inhibitory concentration (IC50) in the assay with Plasmodium falciparum [1] and in the assay with Plasmodium falciparum [2] were 0.0082 µg/mL (≈ 0.0217 µM) and 0.00049 µg/mL (≈ 0.0013 µM), respectively.
For the compound `C=C[C@H]1CN2CC[C@H]1C[C@H]2[C@H](O)c1ccnc2ccc(OC)cc12` [QUININE], the IC50 was greater than 20 µg/mL in the assay with KB, 0.0102 µg/mL (≈ 0.0314 µM) in the assay with Plasmodium falciparum [1] and 0.0238 µg/mL (≈ 0.0734 µM) with Plasmodium falciparum [2].
